Common to all, as to test: NCI tumour cell line growth inhibition, 48 h
Test [1] has as its system A498 renal.
Test [2] relates to HCT-116 colon.
For test [3], the system named is HS 578T breast.
In test [4] the test system is MOLT-4 leukemia.
Test [5] concerns NCI-H226 lung.
Test [6] deals with NCI/ADR-RES ovarian.
The test system of test [7] is SF-295 CNS.
Test [8] has as its system SK-OV-3 ovarian.
Test [9] relates to SN12C renal.
The test system of test [10] is SNB-75 CNS.

Values joined by “and” are separate entries in the source; they are usually repeats but may differ in a detail not shown here. Identical values can stand only once.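 Cultured in 96-well plates, cells were exposed to test compound for 48 hours across five concentrations. At the GI50, growth is halved. The concentration for full growth arrest is given as TGI.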

As for `CCCN1CCCC(c2ccc(Nc3nc(Nc4cc(F)ccc4C(N)=O)c4cc[nH]c4n3)c(OC)c2)C1` (centres undefined), the GI50 is 779 nM in [1]; 210 nM in [2]; 3410 nM in test [3]; 3800 nM in test [4]; 3040 nM in test [5]; 3570 nM in test [6]. Moreover, the GI50 in test [7] is 3420 nM; in [8] it was 2810 nM; in [9], 3190 nM; in test [10] it was 3140 nM. The TGI in test [1] is 4.34 µM; in [2], 4.38 µM; in test [3], 12.3 µM; in test [4], 11.1 µM; in [5], 6.68 µM; in test [6], 9.92 µM. Further, the TGI in test [7] came to 7.16 µM; in test [8], 5.83 µM; in test [9] it was 6.71 µM; in test [10], 6.43 µM.

As for `O=c1[nH]c2c(ccc3cnccc32)c2c1CCC2`, the GI50 in test [1] was 155 nM; in test [2], 267 nM; in test [3], 247 nM; in test [4], 386 nM; in test [5], 252 nM; in test [6] it was 426 nM. For the same compound, the GI50 was 362 nM in test [7], 1700 nM in test [8], 365 nM in test [9] and 324 nM in test [10]. The TGI in [1] is 0.553 µM; in [2], greater than 45.8 µM; in [3] it was 0.808 µM; in [4], greater than 100 µM; in test [5], 0.897 µM; in test [6], greater than 100 µM. The TGI was greater than 100 µM in test [7], greater than 100 µM in test [8], greater than 100 µM in test [9] and 1.4 µM in [10].

For `CN1CC[C@H](N(C)C(=O)N2CC(c3cc(F)ccc3F)=C[C@@]2(CO)c2ccccc2)[C@H](F)C1`, the GI50 was 21.1 nM in test [1]; 3.35 nM in test [2]; 29.3 nM in [3]; 37.7 nM in test [4]; 40400 nM in test [5]; 20.5 nM in test [6]. Besides, the GI50 in test [7] was 14.8 nM; in [8] it was 5.88 nM; in test [9] it was 63.1 nM; in [10] it was 40.2 nM. For the same compound, the TGI in test [1] was 24.8 µM; in [2] it was greater than 100 µM; in [3] it was 7.88 µM; in test [4], greater than 100 µM; in [5] it was greater than 100 µM; in test [6], 1.3 µM. Moreover, the TGI in test [7] was 18.2 µM; in test [8], greater than 100 µM; in test [9], greater than 100 µM; in [10], 34.9 µM.

With `O=C(CNC(=O)c1cccc2ccccc12)Nc1ccccc1Oc1ccc(O)cc1`, the GI50 in test [1] is 1010 nM; in [2], 978 nM; in [3] it was 1340 nM; in test [4] it was 1210 nM; in test [5], 4740 nM; in test [6] it was 1190 nM. Moreover, the GI50 was 620 nM in [7], 1590 nM in test [8], 2190 nM in [9] and 591 nM in test [10]. Also, the TGI in [1] was 9.97 µM; in test [2] it was greater than 25 µM; in test [3] it was greater than 25 µM; in test [4], greater than 25 µM; in test [5] it was greater than 25 µM; in [6], greater than 25 µM. Besides, the TGI in test [7], in [8], in test [9] and in [10] was greater than 25 µM throughout.

In the case of `CCN(CC)CCN1C(=O)c2cccc3cc(N)cc(c23)C1=O`, the TGI in test [1] was 57.5 µM; in test [2] it was 38.5 µM; in test [3], greater than 100 µM; in test [4], greater than 100 µM; in [5], 36.6 µM; in test [6], 58.8 µM. Moreover, the TGI in [7] amounted to 32.5 µM; in test [8], 69.3 µM; in [9] it was 27.1 µM; in [10], 37.1 µM.

Regarding `C/C=C/C(C/C=C(\C)CO[Si](C)(C)C(C)(C)C)O[Si](C)(C)C(C)(C)C` (centres undefined), the TGI in [1], in [2], in [3], in [4], in test [5] and in test [6] was greater than 100 µM throughout. For the same compound, the TGI in [7], in test [8], in test [9] and in test [10] was greater than 100 µM throughout.

In the case of `Nc1c2ccccc2nc2ccccc12`, the GI50 is 1070 nM and 2180 nM in test [1]; 702 nM and 2170 nM in test [2]; 2450 nM and 8090 nM in test [3]; 1680 nM and 2210 nM in [4]; 1240 nM and 2810 nM in test [5]; 1440 nM and 1480 nM in [6]. For the same compound, the GI50 in test [7] was 1610 nM and 3080 nM; in test [8] it was 2180 nM and 3220 nM; in [9], 1500 nM and 2610 nM; in test [10] it was 2460 nM and 3110 nM. For the same compound, the TGI in test [1] is 2.37 µM and 7.28 µM; in [2] it was 8.31 µM and 10.5 µM; in [4], 11.1 µM; in [5], 3.21 µM and 8.24 µM; in test [6] it was 5.35 µM and 6.21 µM; in [7], 9.52 µM and 17.5 µM. Besides, the TGI was 9.21 µM and 22 µM in test [8]; 12.4 µM and 10.5 µM in [9]; 6 µM and 10.4 µM in test [10].

`O=C(c1ccco1)c1c(C(F)(F)F)n([O-])c2cc(Cl)c(Cl)cc2[n+]1=O`: the GI50 was 1530 nM in test [1]; 269 nM in test [2]; 706 nM in test [3]; 59.1 nM in [4]; 1150 nM in test [5]; 845 nM in [6]. Also, the GI50 in [7] is 247 nM; in test [8], 2950 nM; in [9], 650 nM; in test [10] it was 6160 nM. The TGI in test [1] is 3.62 µM; in test [2], 0.921 µM; in test [3], 1.98 µM; in test [4], 1.41 µM; in test [5], 3.01 µM; in test [6], 1.78 µM. In addition, the TGI in test [7] was 0.825 µM; in test [8], 5.83 µM; in test [9] it was 1.41 µM; in test [10] it was 13.6 µM.

Source of the values: PubChem BioAssay (NCI).
